The source of these data is patent publication US8101760B2, “Glucocorticoid receptor modulator and methods of use” (Eli Lilly and Company, priority 2007, dated 2012).

For this assay, the system named is carrageenan-induced paw edema. In words: Carrageenan-induced paw edema (CPE) model. It counts as in vivo, rat. The settings on record: for ED50: rat, oral gavage 2 h before carrageenan, 3 h after injection, mean of 5. The source says: Carrageenans are a group of polysaccharides which can induce an acute inflammatory response in animals. Cardinal signs of inflammation including edema, hyperalgesia and erythema are developed in the injection site immediately following injection. The CPE model (Winter et al., Proc. Soc. Exp. Biol. Med. 111, 544-547, 1962) is a recognized model of inflammation and can be used to evaluate the antinflammatory effects of glucocorticoid receptor ligands.
To evaluate the anti-inflammatory effects of Compound (I), the Compound (I) is formulated in a vehicle comprising 0.5% carboxymethyl cellulose and 0.25% Tween 80 then administered orally via gavage to male Sprague-Dawley rats (180-200 g) (Harlan Industries, Indianapolis, Ind.). For comparison, prednisolone is administered orally in the same vehicle. Two hours later, 1% carrageenan in 50 μL of 0.9% pyrogen free saline is injected into the subplantar regions of the right hind paw. Rats are euthanized by CO2 at 3 hours after the carrageenan injection. Paws are removed then weighed using a microbalance. Paws are then immediately immersed into liquid nitrogen until frozen. Frozen paws are dissected by making several cuts on the paw surface then centrifuged to extract the exudates. Exudate levels of IL-1β, a cytokine generated during the inflammatory response, is then measured by ELISA (R&D Systems, Inc., Catalog No. RLB00) using standard techniques. Total paw protein is also measured using a protein assay kit (Pierce Biotechnology, Inc., Rockford, Ill., U.S.A., Catalog No. 1856210) and the absolute level of IL-1β is normalized to yield a concentration value of ng IL-1β/mg total protein.
Background: The carrageenan paw model is a standard test of acute inflammation.

As a reminder, the ED50 is the dose at which the effect has come halfway, by size or by number of responders.

Read-outs that look alike come from different tables or passages of the source.

As for `C[C@]12C=CC(=O)C=C1CC[C@@H]1[C@@H]2[C@@H](O)C[C@@]2(C)[C@H]1CC[C@]2(O)C(=O)CO` [prednisolone, reference compound], the “potency relative to Compound (I) (fold less potent)” value (rat CPE model, similar conditions) was “about 5 fold”. The median effective dose (ED50) by setting is: (read-out: ED50, inhibition of carrageenan induced paw weight gain) roughly 6.6 mg/kg; (read-out: ED50, reduction of paw exudate levels of IL-1β) less than 1 mg/kg.
